Data: paper PMC11011441, “Bioactive Compounds and Potential Health Benefits through Cosmetic Applications of Cherry Stem Extract” (International Journal of Molecular Sciences, 2024)

Assays:
Format in all cases: biochemical
[1] = tested on: elastase; assay: Elastase inhibition (MeOSuc-Ala-Ala-Pro-Val-pNa hydrolysis); details: at 51.26 mg/L
Experimental: (§1) The potential of cherry stem extract to inhibit hyaluronidase (HYALase), collagenase, elastase, tyrosinase, and xanthine oxidase enzymes was evaluated. The methods were carried out following previous studies.
The assessment of elastase enzyme inhibition was based on the release of p-nitroaniline resulting from the hydrolysis of the substrate MeOSuc-Ala-Ala-Pro-Val-pNa by elastase. The quantity of p-nitroaniline was gauged through absorbance readings at 405 nm. Elastatinal (ELA) was employed as the control for elastase inhibition. The control result was stated as % inhibition.
(§2) Results for cherry stem extract were presented as IC50 values at various extract concentrations, except for the enzyme tyrosinase, which was presented as IC55 value at various extract concentrations. All evaluations were performed in triplicate.

[2] = Superoxide radical scavenging (reduction of NBT to diformazan)
Experimental: (§3) The ability of cherry stem extract to inhibit superoxide radical (O2^·−), hypochlorous acid (HOCl), and nitric oxide (NO^·) was evaluated. […] The scavenging properties of cherry stem extract and positive controls against the O2^·− radical were assessed colorimetrically by reduction of NBT to diformazan purple. The ability of the cherry stem extract to inhibit HOCl by inducing the oxidation of DHR to rhodamine was determined. The scavenging activity of cherry stem extract against NO^· was determined by oxidation of DAF-2. To assess the inhibition of O2^·−, NO^·, and HOCl radicals, epicatechin (EPI) and gallic acid (GA) were employed as reference controls. All results were expressed as IC50 value using different concentrations of cherry stem extract and all measurements were performed in triplicate.

[3] = Nitric oxide scavenging (oxidation of DAF-2); details: radical scavenging
Experimental: as §3

[4] = Hypochlorous acid scavenging (oxidation of DHR to rhodamine); details: radical scavenging
Experimental: as §3

[5] = tested on: hyaluronidase (HYALase); assay: HYALase inhibition assay (turbidity at 600 nm)
Experimental: The potential of cherry stem extract to inhibit hyaluronidase ([…]), collagenase, elastase, tyrosinase, and xanthine oxidase enzymes was evaluated. The methods were carried out following previous studies. The […] inhibition assay involves quantifying the reduction in transmitted light intensity caused by particles generated from the breakdown of hyaluronic acid (HYAL) by the […] enzyme. Absorbance readings were taken at 600 nm. EPI and GA were employed as controls to evaluate […] inhibition. The outcomes from the EPI and GA controls were reported as IC20 values. Results for cherry stem extract were presented as IC50 values at various extract concentrations, except for the enzyme tyrosinase, which was presented as IC55 value at various extract concentrations. All evaluations were performed in triplicate.

[6] = tested on: tyrosinase; assay: Tyrosinase inhibition (Colorimetric Tyrosinase Inhibitor Detection Kit); details: at 21.3 mg/L
Experimental: The potential of cherry stem extract to inhibit hyaluronidase ([…]), collagenase, elastase, tyrosinase, and xanthine oxidase enzymes was evaluated. The methods were carried out following previous studies. The evaluation of tyrosinase inhibition was conducted using a “Colorimetric Tyrosinase Inhibitor Detection Kit” sourced from Sigma-Aldrich, USA. Inhibition control was established with kojic acid (KA). The control outcome was represented as % inhibition. Results for cherry stem extract were presented as IC50 values at various extract concentrations, except for the enzyme tyrosinase, which was presented as IC55 value at various extract concentrations. All evaluations were performed in triplicate.

[7] = target: collagenase; assay: Collagenase inhibition (FALGPA degradation)
Experimental: as §1
The evaluation of collagenase enzyme activity is based on the colorimetric analysis of the degradation of the FALGPA substrate by the enzyme. The absorbance measurements were taken at 335 nm. Phenanthroline (PHE) was used as the control to assess collagenase inhibition, and the IC50 value was quantified as the control.
as §2

| HYALase inhibitory concentration at 20% (IC20) [5] | Compound | O2^·− inhibitory concentration at 50% [2] [mg/L] | NO^· inhibitory concentration at 50% [3] [mg/L] | HOCl inhibitory concentration at 50% [4] [mg/L] | further results |
| --- | --- | --- | --- | --- | --- |
| – | CC(C)C[C@H](NC(=O)N[C@H](C(=O)N[C@@H](CCC(N)=O)C(=O)N[C@@H](C)C=O)[C@@H]1CCNC(=N)N1)C(=O)O [ELA, elastatinal] | – | – | – | Elastase % inhibition [1]: 53 ± 5 ^4% |
| 167 ± 6 ^5 mg/L | Oc1cc(O)c2c(c1)O[C@H](c1ccc(O)c(O)c1)[C@H](O)C2 [EPI, epicatechin] | 70 ± 5 | 0.87 ± 0.02 | 0.18 ± 0.01 | – |
| 102 ± 4 ^5 mg/L | O=C(O)c1cc(O)c(O)c(O)c1 [GA, gallic acid] | 50 ± 3 | 1.4 ± 0.3 | 3.8 ± 0.3 | – |
| – | O=c1cc(CO)occ1O [KA, Kojic acid] | – | – | – | Tyrosinase % inhibition [6]: 49 ± 6 ^3% |
| – | c1cnc2c(c1)ccc1cccnc12 [PHE, 1, 10-phenanthroline] | – | – | – | Collagenase inhibitory concentration at 50% [7]: 83 ± 2 mg/L |
